Data on seven molecules can be found in patent US5688760A, “Polypeptides having bone resorption inhibitory activity comprising PTHrP-derived sequences” (Genentech, Inc., priority 1990, dated 1997).

The subject of one assay is isolated osteoclasts. The assay can be described thus: Osteoclast isolation and assay of bone resorption (resorption pits per osteoclast on bovine cortical bone slices). The assay is classed as cell-based, neonatal female Wistar rats. Also on record: key to Activity (bone resorption inhibitory activity), Table 3 Effect of Amino Acid Substitutions: bone resorption inhibitory activity is designated by a "+"; inactivity by "-". Conditions: for Activity (bone resorption inhibitory activity), Table 3 Effect of Amino Acid Substitutions: amino acid derivatives of PTHrP (107-111). As to the method:
For example, osteoclasts may be settled on sections of bone and incubated in the presence of, and in the absence of test compounds. Osteoclasts can be determined histochemically and can then be removed following incubation with bone sections by, for example, ultrasonification and the bone surface examined by microscopy to measure resorption pits produced per isolated osteoclasts. The number of resorption pits may be counted and their areas quantitated, for example by digitized morphometry. The variants or derivatives with inhibitory activity on bone resorption will, of course, inhibit the activity of osteoclasts in resorption of bone, which can be readily ascertained by analysis of bone sections. Likewise, variants or derivatives which have no effect in inhibiting bone resorption or which stimulate bone resorption will be evidenced by the formation of resorption pits on bone-sections.
Osteoclasts were isolated from neonatal female Wistar rats by curetting the long bones into culture medium (HEPES-buffered Medium 199 [Trademark Flow Laboratories]). The resulting cell suspension was allowed to settle onto 100 μm thick slices of devitalized bovine cortical bone for 20 minutes before rinsing. After this brief settling period, the majority of contaminating cells are removed in the rinsing step, resulting in a functionally pure population of osteoclasts. The bone slices were then incubated in tissue culture medium (Eagle's Minimum Essential Medium [Flow Laboratories] supplemented, with 100 iU/ml benzylpenicillin 100 μg/ml streptomycin and 10% heat-inactivated fetal bovine serum) at 37° C. in 95% air, 5% CO2, pH 7.3 in the presence or absence of test agents. After 24 hours, the cells were fixed, reacted cytochemically for tartrate-resistant acid phosphatase (TRACP) and the number of multinucleated cells with strong reactions for TRACP (i.e. osteoclasts) counted. The cells were then stripped by ultrasonication in 0.25M NH4 OH prior to processing for scanning electronic microscopy. The entire surface of each bone slice was scanned and the number of resorption pits counted. In selected experiments the depth of the pits are assessed. There was a minimum of 6 replicates for each concentration point for each peptide. Each experiment was repeated at least 3 times. Statistical significance was determined by using Student's t test to compare each treatment with control. Bone resorption can be expressed as pit No./OC/bone slice, total excavated plan area/OC/bone slice, or total excavated volume of bone/OC/bone slice. Such assays are routine and readily amenable to the screening of large numbers of compounds for bone resorption inhibitory activity.

Assay [1] concerns Cyclic AMP in osteoclasts. The assay can be described thus: Cyclic AMP assay in isolated osteoclasts. Conditions: osteoclasts pretreated with isobutylmethylxanthine 1 mM, peptide for 10 minutes. Format: cell-based, rat. Here is the method:
Recombinant hPTHrP(1-141) and recombinant hPTHrP(1-108) were prepared and purified as previously described (Suva et al., Supra, incorporated herein by reference). hPTHrP(107-139), […]COOH (SEQ ID NO:2), and other peptides were synthesized as carboxy-terminal amides, using an Applied Biosystems Peptide Synthesizer Model 430. Following HF cleavage, peptides were extracted from the resin with 60% (v/v) acetonitrile and 0.1% (v/v) trifluoroacetic acid and lyophilized. The crude peptides were purified by […] (2.5×90 cm column, C18, 20-30 μm. 300 Å resin, Vydac, California) with an acetonitrile gradient in the presence of 0.1% trifluoroacetic acid. The composition of the synthetic peptides was verified by quantitative amino acid analysis using a Beckman 6300 amino acid analyser. Cyclic AMP Assay: Osteoclasts were isolated as described above into 12-well tissue culture plates (Linbro). The cultures were pretreated with isobutylmethylxanthine (1 mM) for 20 minutes prior to administration of test peptides for 10 minutes. Cyclic AMP was extracted with 95% (v/v) ethanol/1 mM HCl and measured by radioimmunoassay. Four to six replicate wells were used in each treatment group.

Assay [2] in a line: In vivo serum calcium levels after intravenous injection in rats. The settings on record: 100 nanograms 100 grams body weight, saline control about 2.58. Here is the method:
Mammalian serum calcium levels are tightly controlled by homeostatic mechanisms and show little variation. A model peptide, PTHrP 107-139 was injected intraveneously into rats (n=10) in an amount of 100 nanograms 100 grams body weight whereafter serum calcium levels were measured at 30 and 60 minutes by atomic absorption spectrascopy according to standard methods. Control groups of animals were injected with a positive control, calcitonin, which causes a decrease in serum calcium levels, as well as a negative control in the form of saline. Two groups of 10 rats ware used in these controls.

Non-standard residues stand in square brackets, D forms with d. No end group written: not given here. 2Nal = N[C@@H](Cc1ccc2ccccc2c1)C(=O)O; Aib = CC(C)(N)C(=O)O

For T R C A W P G T C (TRCAWPGTC), the “Activity (bone resorption inhibitory activity), Table 3 Effect of Amino Acid Substitutions” value in the assay with isolated osteoclasts is “+”. On to calmon calcitonin [reference compound], for which the “cyclic AMP response” value in assay [1] amounted to 2.5 fold. For “T R S npA (TRS[2Nal]; not fully specified (C-terminus); printed as T R S npA) [npA is 3(2-napthyl)alanine]”, the “Activity (bone resorption inhibitory activity), Table 3 Effect of Amino Acid Substitutions” value in the assay on isolated osteoclasts is recorded as “+”.

As for “Thr Arg Ser Ala Trp Leu Asp Ser Gly Val Thr Gly Ser Gly Leu Glu Gly Asp His Leu Ser Asp Thr Ser Thr Thr Ser Leu Glu Leu Asp Ser Arg-COOH (TRSAWLDSGVTGSGLEGDHLSDTSTTSLELDSR-OH) [PTHrP(107-139)]”, in assay [2], the “serum calcium level at 30 minutes after injection” value came out at 2.35 millimolar and the “serum calcium level at 60 minutes after injection” value is on record as “about 2.55 millimolar”. Further, the “cyclic AMP response” value in assay [1] is listed as “no elevation”. Further, the “inhibition of resorption (pit number/osteoclast number), FIG. 2” value in the assay with isolated osteoclasts (peptides at 1 nM) was “substantial inhibition”. Take “T R SmeA W (TRS[Aib]W; not fully specified (C-terminus); printed as T R SmeA W) [me is α-methyl]”: the “Activity (bone resorption inhibitory activity), Table 3 Effect of Amino Acid Substitutions” value with isolated osteoclasts is “+”.

On to `CC1CNCCN1S(=O)(=O)c1cccc2cnccc12` (stereo not shown) [H7, 1-(5-isoquinolinesulfonyl)-2 methyl piperazine, reference compound], for which, in the assay with isolated osteoclasts, the “effect of PTHrP(107-139) on osteoclasts in the presence of protein kinase C inhibitor” value is “blocked”. Regarding calcitonin [reference compound], the “serum calcium level at 30 minutes after injection” value in assay [2] was “about 2.35 millimolar”.
